Laboratory results reported in ChEMBL document CHEMBL1201862, “PubChem BioAssay data set” (2004).
The source made the active and inactive calls. Rule as the data show it, for most assays here: actives have a measured EC50 and inactives only a lower limit.

Columns and labels:
Saccharomyces cerevisiae = assay: S. cerevisiae Caspase-1/ASC signal blockers IC50, NALP1 inhibitor project selectivity test (AID 488863); assay type: functional, organism-based
[1] = target: T1, Polyadenylate-binding protein 1 (Homo sapiens, UniProt P11940); assay: MLLE binding blockers, Cy5 peptide tracer – biochemical, fluorescence polarization, Cy5-PAM2 peptide, secondary, miRNA deadenylation inhibitor project, dose response (AID 602260); assay type: functional; conditions: read-out: IC50_Mean
[2] = target: T1, Polyadenylate-binding protein 1; assay: MLLE domain peptide-binding blockers, IC50 – biochemical, fluorescence polarization, FITC-PAM2 peptide, dose response (AID 602259); assay type: functional; conditions: read-out: IC50_Mean
[3] = target: NACHT, LRR and PYD domains-containing protein 1 (Homo sapiens, UniProt Q9C000); assay: NALP1 inhibitors in yeast, dose response, luminescent (AID 488860); assay type: functional
Protein RecA = target: T2, Protein RecA (Mycobacterium tuberculosis, UniProt P9WHJ3); assay: Fluorescence Cell-Free Homogeneous Dose Retest to Identify Inhibitors of RecA-Intein Splicing Activity. [Related pubchem assays (depositor defined):AID2097, AID2223, AID489010, AID492950]; assay type: functional
T2 sequence (P9WHJ3 whole entry): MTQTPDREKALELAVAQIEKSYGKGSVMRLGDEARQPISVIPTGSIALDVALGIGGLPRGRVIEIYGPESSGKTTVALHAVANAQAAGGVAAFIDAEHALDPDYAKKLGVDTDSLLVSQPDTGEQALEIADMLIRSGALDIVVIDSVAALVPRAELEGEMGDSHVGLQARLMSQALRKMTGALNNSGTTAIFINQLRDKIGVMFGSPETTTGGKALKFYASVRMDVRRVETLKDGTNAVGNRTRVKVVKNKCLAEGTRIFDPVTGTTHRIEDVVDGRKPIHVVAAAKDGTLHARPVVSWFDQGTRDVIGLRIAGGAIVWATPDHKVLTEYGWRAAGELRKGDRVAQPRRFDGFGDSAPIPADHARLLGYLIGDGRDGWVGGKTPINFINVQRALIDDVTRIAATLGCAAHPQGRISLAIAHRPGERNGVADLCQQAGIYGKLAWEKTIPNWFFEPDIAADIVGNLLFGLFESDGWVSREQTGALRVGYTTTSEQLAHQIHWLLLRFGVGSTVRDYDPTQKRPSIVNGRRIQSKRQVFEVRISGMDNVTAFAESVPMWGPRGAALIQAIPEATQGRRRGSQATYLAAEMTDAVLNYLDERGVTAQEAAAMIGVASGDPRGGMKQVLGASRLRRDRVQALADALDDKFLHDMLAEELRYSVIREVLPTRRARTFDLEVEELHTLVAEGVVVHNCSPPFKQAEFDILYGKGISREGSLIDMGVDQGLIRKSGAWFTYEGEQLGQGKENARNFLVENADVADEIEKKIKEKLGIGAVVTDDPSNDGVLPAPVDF

[4] = target: T3, Replicative DNA helicase DnaB (Mycobacterium tuberculosis, UniProt P9WMR3); assay: DnaB intein splicing inhibitors, dose response, biochemical, cell-free fluorescence (AID 449749); assay type: functional
T3 sequence (P9WMR3 whole entry): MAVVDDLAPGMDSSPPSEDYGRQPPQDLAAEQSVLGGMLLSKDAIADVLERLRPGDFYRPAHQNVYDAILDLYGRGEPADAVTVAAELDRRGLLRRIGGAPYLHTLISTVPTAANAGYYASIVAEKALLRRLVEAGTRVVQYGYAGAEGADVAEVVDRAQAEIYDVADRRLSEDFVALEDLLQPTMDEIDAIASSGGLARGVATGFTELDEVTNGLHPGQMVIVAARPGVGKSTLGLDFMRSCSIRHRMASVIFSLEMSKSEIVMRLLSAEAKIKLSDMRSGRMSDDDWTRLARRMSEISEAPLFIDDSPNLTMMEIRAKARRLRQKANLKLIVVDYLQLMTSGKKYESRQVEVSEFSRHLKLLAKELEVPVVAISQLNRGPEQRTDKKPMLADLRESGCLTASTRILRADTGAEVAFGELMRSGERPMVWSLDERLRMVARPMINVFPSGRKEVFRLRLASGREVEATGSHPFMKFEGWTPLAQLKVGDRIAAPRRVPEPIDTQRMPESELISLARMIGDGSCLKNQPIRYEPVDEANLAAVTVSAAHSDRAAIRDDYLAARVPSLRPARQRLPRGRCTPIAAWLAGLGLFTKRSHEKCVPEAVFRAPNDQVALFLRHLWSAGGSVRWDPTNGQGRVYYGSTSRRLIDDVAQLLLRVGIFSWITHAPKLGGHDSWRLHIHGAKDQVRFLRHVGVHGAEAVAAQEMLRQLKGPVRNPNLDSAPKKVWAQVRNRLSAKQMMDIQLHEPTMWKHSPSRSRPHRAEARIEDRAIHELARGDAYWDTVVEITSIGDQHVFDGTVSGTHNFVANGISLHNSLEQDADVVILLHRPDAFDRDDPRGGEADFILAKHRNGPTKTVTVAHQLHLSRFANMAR

Beta-galactosidase = Beta-galactosidase (Escherichia coli, UniProt Q8VNN2); assay: detection-enzyme interference by beta-gal modulators – biochemical, E. coli enzyme, set 3, artefact control for CCR6 antagonist project, dose response (AID 504712); assay type: functional
[5] = alpha-synuclein stem-loop translation blockers – luminescence, H4 neuroglioblastoma cells, dose confirmation, confirmation (AID 2454); assay type: functional, cell-based;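 also: H4 neuroglioblastoma cells carrying an alpha-synuclein 5'UTR luciferase reporter; potency for inhibition of the luciferase signal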
[6] = HEK-293T viability loss after treatment – luminescence, T-cell screen hits, cytotoxicity control for TCR NF-kB inhibitor project, dose response (AID 489026); assay type: functional, cell-based;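 also: cells exposed to compound about 14 hours before the viability readout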
[7] = luciferase reporter signal reduction – luminescence, H4-C neuroglioblastoma cells, dose response (AID 2458); assay type: functional, cell-based;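 also: H4 neuroglioblastoma cells stably carrying a luciferase reporter gene fusion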
BJ [8] = assay: cells; assay type: functional, cell-based; conditions: Homo sapiens
[9] = alpha-synuclein stem-loop luciferase translation blockers – H4 neuroglioma cells, luminescence, confirmation (AID 1988); assay type: functional, cell-based
cells = assay type: functional, cell-based
[10] = luciferase reporter signal suppression in cells – H4 neuroglioma cells, luminescence, dose response (AID 1990); assay type: functional, cell-based
BJ [11] = assay: BJ-TERT-LT-ST fibroblast viability loss – cell-based, RAS-independent, luminescence, dose response (AID 1935); assay type: functional; conditions: Homo sapiens;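 also: BJ fibroblasts immortalized with TERT plus LT and ST oncogenes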
[12] = toxicity toward HEK293 cells – cell-based, dry powder samples, cytotoxicity control, dose response (AID 720567); assay type: functional
J774.A1 = assay: Confirmation of image-based Screening Assay for Inhibitors of Phagocytosis. [Related pubchem assays (depositor defined):AID1029, AID1643]; assay type: functional, cell-based; conditions: Mus musculus
[13] = DRD fibroblast viability loss – cell-based, non-viral oncogenic, luminescence, dose response (AID 1934); assay type: functional; conditions: Homo sapiens
[14] = Luminescence Cell-Based Dose Response HTS to Identify Inhibitors of 5'UTR Stem-Loop Driven Prion Protein mRNA Translation in H4 Neuroglioblastoma Cells. [Related pubchem assays: 1827 (Project Summary), 1813 (Primary HTS)]; assay type: functional
BJ [15] = assay: BJ-TERT fibroblast viability loss – cell-based, RAS-independent, luminescence, dose response (AID 1933); assay type: functional; conditions: Homo sapiens

T1 sequence (P11940 whole entry, the tested form may be a part): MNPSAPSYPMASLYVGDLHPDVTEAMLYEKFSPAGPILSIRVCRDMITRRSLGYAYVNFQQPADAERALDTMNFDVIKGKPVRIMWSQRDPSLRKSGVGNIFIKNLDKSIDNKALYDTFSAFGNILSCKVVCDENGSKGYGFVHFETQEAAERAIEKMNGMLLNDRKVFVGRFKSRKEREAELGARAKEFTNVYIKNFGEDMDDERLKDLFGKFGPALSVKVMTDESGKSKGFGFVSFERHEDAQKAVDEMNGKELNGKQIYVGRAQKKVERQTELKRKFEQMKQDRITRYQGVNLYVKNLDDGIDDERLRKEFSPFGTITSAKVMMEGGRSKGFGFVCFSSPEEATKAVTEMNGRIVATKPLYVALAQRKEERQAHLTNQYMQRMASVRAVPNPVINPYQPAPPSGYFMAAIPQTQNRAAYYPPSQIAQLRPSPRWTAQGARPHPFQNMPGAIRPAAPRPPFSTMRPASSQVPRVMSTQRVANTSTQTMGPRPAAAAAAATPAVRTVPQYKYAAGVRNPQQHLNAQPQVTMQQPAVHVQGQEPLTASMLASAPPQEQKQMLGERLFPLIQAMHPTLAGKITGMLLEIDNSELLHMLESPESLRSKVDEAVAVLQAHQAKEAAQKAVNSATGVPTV
Sequence of NACHT, LRR and PYD domains-containing protein 1 (Q9C000 1-1212 limits assumed): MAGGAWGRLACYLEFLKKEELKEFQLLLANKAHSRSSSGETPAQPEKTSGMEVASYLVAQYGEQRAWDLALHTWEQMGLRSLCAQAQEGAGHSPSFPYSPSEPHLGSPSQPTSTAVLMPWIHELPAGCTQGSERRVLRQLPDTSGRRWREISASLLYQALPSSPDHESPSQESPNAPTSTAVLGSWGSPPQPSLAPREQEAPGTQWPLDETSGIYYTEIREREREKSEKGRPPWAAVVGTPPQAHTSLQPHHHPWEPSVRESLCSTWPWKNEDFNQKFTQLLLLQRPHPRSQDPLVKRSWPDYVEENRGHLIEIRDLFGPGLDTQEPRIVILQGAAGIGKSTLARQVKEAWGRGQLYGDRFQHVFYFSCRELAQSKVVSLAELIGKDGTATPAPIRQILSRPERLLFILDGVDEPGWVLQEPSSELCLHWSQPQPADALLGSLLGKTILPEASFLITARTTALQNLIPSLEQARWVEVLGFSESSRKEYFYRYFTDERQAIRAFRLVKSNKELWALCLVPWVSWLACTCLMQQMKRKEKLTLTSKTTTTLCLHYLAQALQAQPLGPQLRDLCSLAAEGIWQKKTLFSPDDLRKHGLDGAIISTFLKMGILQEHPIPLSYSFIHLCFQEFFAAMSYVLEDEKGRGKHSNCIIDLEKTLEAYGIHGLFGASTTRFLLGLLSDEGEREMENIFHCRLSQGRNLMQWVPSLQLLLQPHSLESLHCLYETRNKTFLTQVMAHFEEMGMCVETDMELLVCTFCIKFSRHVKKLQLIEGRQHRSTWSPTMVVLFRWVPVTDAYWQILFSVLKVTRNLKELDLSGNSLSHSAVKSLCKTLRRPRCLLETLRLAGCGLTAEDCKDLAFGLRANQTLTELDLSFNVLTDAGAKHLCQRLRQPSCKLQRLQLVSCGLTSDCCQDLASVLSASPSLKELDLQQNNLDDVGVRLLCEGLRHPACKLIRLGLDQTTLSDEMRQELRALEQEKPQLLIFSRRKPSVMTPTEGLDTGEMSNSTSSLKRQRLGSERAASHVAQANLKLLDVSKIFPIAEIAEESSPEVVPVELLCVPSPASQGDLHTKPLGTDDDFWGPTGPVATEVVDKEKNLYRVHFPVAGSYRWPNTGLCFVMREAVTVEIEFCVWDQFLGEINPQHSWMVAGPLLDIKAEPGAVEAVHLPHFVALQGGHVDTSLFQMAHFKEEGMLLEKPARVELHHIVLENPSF
Sequence of NACHT, LRR and PYD domains-containing protein 1 (Q9C000 1213-1473 limits assumed): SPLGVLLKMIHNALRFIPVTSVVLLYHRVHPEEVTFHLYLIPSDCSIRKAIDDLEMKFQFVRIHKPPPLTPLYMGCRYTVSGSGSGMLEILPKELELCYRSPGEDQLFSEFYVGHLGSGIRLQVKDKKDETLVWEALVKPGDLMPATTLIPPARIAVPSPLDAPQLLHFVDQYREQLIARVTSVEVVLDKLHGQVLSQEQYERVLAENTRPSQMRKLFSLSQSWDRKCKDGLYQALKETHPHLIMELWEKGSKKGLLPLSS
Sequence of Beta-galactosidase (Q8VNN2 whole entry): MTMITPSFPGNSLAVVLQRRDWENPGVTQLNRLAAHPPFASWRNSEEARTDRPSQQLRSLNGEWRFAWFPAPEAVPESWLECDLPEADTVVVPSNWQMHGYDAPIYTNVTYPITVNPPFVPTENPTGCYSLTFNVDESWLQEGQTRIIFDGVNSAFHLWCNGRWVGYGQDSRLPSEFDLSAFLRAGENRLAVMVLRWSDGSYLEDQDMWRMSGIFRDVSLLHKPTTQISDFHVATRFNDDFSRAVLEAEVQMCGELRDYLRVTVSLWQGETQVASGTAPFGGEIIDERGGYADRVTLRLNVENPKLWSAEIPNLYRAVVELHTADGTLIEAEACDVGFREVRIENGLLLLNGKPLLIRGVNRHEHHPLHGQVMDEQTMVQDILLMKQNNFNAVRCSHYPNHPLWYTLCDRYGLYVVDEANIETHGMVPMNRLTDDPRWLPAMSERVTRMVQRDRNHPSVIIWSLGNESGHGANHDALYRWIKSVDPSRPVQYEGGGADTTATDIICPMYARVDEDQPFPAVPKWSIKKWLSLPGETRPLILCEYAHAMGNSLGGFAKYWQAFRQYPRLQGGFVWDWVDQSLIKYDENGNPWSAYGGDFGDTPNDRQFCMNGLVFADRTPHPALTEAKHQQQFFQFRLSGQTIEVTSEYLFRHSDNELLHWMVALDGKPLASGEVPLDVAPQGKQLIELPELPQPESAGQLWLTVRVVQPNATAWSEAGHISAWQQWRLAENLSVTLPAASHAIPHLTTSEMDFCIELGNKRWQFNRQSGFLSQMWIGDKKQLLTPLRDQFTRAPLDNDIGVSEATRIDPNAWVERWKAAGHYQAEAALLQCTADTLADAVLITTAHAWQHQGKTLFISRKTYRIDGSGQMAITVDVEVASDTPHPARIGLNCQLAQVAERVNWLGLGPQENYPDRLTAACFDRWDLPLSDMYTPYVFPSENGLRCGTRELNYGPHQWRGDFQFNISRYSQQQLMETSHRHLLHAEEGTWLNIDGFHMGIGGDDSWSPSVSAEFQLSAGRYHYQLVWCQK

In the case of `Cc1ccc(N2C(=O)CC(Sc3ccccc3C(=O)O)C2=O)cc1` (stereo not given), the IC50 (Saccharomyces cerevisiae) is reported as 20.6 µM (active), the IC50 [1] is reported as > 66 µM (inactive) and the IC50 [2] is reported as > 66 µM (inactive). For the same compound, the IC50 [3] was 34.4 µM (active).
In the case of `N#Cc1cc([N+](=O)[O-])c(-n2nnc3ccccc32)c([N+](=O)[O-])c1`, the EC50 (Protein RecA) is reported as 25.9 µM (active), the AC50 [4] is reported as 7.31 µM (active) and the IC50 (Beta-galactosidase) is reported as > 66.6 µM (inactive).
For `Cc1cc(C)cc(C(=O)N2CC(=O)Nc3ccccc32)c1`, the EC50 [5] was > 12 µM (inconclusive), the IC50 [6] was > 80 µM (inactive) and the EC50 [7] was 0.921 µM (active). The EC50 (BJ [8]) was 3.38 µM (active), the EC50 [9] was < 0.1 µM (active) and the EC50 (cells) was 0.858 µM (active). For the same compound, the EC50 [10] was 1.09 µM (active), the EC50 (BJ [11]) was 11.5 µM (inconclusive) and the AC50 [12] was > 30 µM (inactive). The IC50 (J774.A1) was 0.161 µM (active), the EC50 [13] was 0.817 µM (active) and the EC50 [14] was < 0.1 µM (active). The EC50 (BJ [15]) was 1.24 µM (inconclusive).
